Experimental data: patent publication US20100035871A1, “BENZOXAZINE DERIVATIVES AND USES THEREOF” (priority 2006, published 2010)
Where a name gives a salt, the structure may show the parent alone.

melting point | SMILES
163 °C (dec.) | NC[C@@H]1CNc2cccc(-c3ccc(Cl)cc3Cl)c2O1 (as salt: hydrochloride) [Example 54, 1-[(2R)-8-(2,4-dichlorophenyl)-3,4-dihydro-2H-1,4-benzoxazin-2-yl]methanamine]
203 °C (dec.) | NC[C@@H]1CNc2cccc(-c3ccc(Cl)cc3C(F)(F)F)c2O1 (as salt: hydrochloride) [Example 67, 1-{(2R)-8-[4-chloro-2-(trifluoromethyl)phenyl]-3,4-dihydro-2H-1,4-benzoxazin-2-yl}methanamine]
90 °C (dec.) | COc1ccccc1-c1cccc2c1OC(CN)CN2C (racemic) (as salt: hydrochloride) [Example 1, 1-[8-(2-Methoxyphenyl)-4-methyl-3,4-dihydro-2H-1,4-benzoxazin-2-yl]methanamine]
109 to 112 °C | Cc1cc(Cl)ccc1-c1cccc2c1OC(CN)CN2C (racemic) (as salt: hydrochloride) [Example 2, 1-[8-(4-Chloro-2-methylphenyl)-4-methyl-3,4-dihydro-2H-1,4-benzoxazin-2-yl]methanamine]
90 °C (dec.) | CN1CC(CN)Oc2c(-c3ccc(Cl)cc3Cl)cccc21 (racemic) (as salt: hydrochloride) [Example 3, 1-[8-(2,4-Dichlorophenyl)-4-methyl-3,4-dihydro-2H-1,4-benzoxazin-2-yl]methanamine]
90 °C (dec.) | CN1CC(CN)Oc2c(-c3ccccc3C(F)(F)F)cccc21 (racemic) (as salt: hydrochloride) [Example 4, 1-{4-Methyl-8-[2-(trifluoromethyl)phenyl]-3,4-dihydro-2H-1,4-benzoxazin-2-yl}methanamine]
85 °C (dec.) | COc1ccc(-c2cccc3c2OC(CN)CN3C)c(C)c1 (racemic) (as salt: hydrochloride) [Example 5, 1-[8-(4-Methoxy-2-methylphenyl)-4-methyl-3,4-dihydro-2H-1,4-benzoxazin-2-yl]methanamine]
90 to 92 °C | COc1ccc(-c2cccc3c2OC(CN)CN3C)cc1 (racemic) (as salt: hydrochloride) [Example 6, 1-[8-(4-Methoxyphenyl)-4-methyl-3,4-dihydro-2H-1,4-benzoxazin-2-yl]methanamine]
104 °C (dec.) | CN1CC(CN)Oc2c(-c3ccccc3F)cccc21 (racemic) (as salt: hydrochloride) [Example 7, 1-[8-(2-Fluorophenyl)-4-methyl-3,4-dihydro-2H-1,4-benzoxazin-2-yl]methanamine]
92 °C (dec.) | Cc1ccccc1-c1cccc2c1OC(CN)CN2C (racemic) (as salt: hydrochloride) [Example 8, 1-[4-Methyl-8-(2-methylphenyl)-3,4-dihydro-2H-1,4-benzoxazin-2-yl]methanamine]
80 °C (dec.) | CN1CC(CN)Oc2c(-c3ccccc3)cccc21 (racemic) (as salt: hydrochloride) [Example 9, 1-(4-Methyl-8-phenyl-3,4-dihydro-2H-1,4-benzoxazin-2-yl)methanamine]
135 to 136 °C | NCC1CNc2cc(F)cc(-c3c(Cl)cccc3Cl)c2O1 (racemic) (as salt: hydrochloride) [Example 10, 1-[8-(2,6-Dichlorophenyl)-6-fluoro-3,4-dihydro-2H-1,4-benzoxazin-2-yl]methanamine]
80 °C (dec.) | CN1CC(CN)Oc2c(-c3ccccc3Cl)cccc21 (racemic) (as salt: hydrochloride) [Example 11, 1-[8-(2-Chlorophenyl)-4-methyl-3,4-dihydro-2H-1,4-benzoxazin-2-yl]methanamine]
90 °C (dec.) | NCC1CN(CC2CC2)c2cccc(-c3ccccc3Cl)c2O1 (racemic) (as salt: hydrochloride) [Example 12, 1-[8-(2-Chlorophenyl)-4-(cyclopropylmethyl)-3,4-dihydro-2H-1,4-benzoxazin-2-yl]methanamine]
90 °C (dec.) | CN1CC(CN)Oc2c(-c3cc(Cl)ccc3Cl)cccc21 (racemic) (as salt: hydrochloride) [Example 13, 1-[8-(2,5-Dichlorophenyl)-4-methyl-3,4-dihydro-2H-1,4-benzoxazin-2-yl]methanamine]
130 °C (dec.) | NCC1CNc2cccc(-c3cc(Cl)ccc3Cl)c2O1 (racemic) (as salt: hydrochloride) [Example 14, 1-[8-(2,5-Dichlorophenyl)-3,4-dihydro-2H-1,4-benzoxazin-2-yl]methanamine]
158 to 161 °C | NCC1CNc2cccc(-c3ccc(Cl)cc3Cl)c2O1 (racemic) (as salt: hydrochloride) [Example 15, 1-[8-(2,4-Dichlorophenyl)-3,4-dihydro-2H-1,4-benzoxazin-2-yl]methanamine]
140 °C (dec.) | NCC1CNc2cccc(-c3ccccc3Cl)c2O1 (racemic) (as salt: hydrochloride) [Example 16, 1-[8-(2-Chlorophenyl)-3,4-dihydro-2H-1,4-benzoxazin-2-yl]methanamine]
195 to 197 °C | Cc1ccccc1-c1cccc2c1OC(CN)CN2 (racemic) (as salt: hydrochloride) [Example 17, 1-[8-(2-Methylphenyl)-3,4-dihydro-2H-1,4-benzoxazin-2-yl]methanamine]
205 to 207 °C | NCC1CNc2cccc(-c3ccc(Cl)cc3C(F)(F)F)c2O1 (racemic) (as salt: hydrochloride) [Example 18, 1-{8-[4-Chloro-2-(trifluoromethyl)phenyl]-3,4-dihydro-2H-1,4-benzoxazin-2-yl}methanamine]
105 to 106 °C | CCN1CC(CN)Oc2c(-c3ccccc3Cl)cccc21 (racemic) (as salt: hydrochloride) [Example 19, 1-[8-(2-Chlorophenyl)-4-ethyl-3,4-dihydro-2H-1,4-benzoxazin-2-yl]methanamine]
192 to 194 °C | Cc1cc(Cl)ccc1-c1cccc2c1OC(CN)CN2 (racemic) (as salt: hydrochloride) [Example 20, 1-[8-(4-chloro-2-methylphenyl)-3,4-dihydro-2H-1,4-benzoxazin-2-yl]methanamine]
83 to 85 °C | CCCN1CC(CN)Oc2c(-c3ccccc3Cl)cccc21 (racemic) (as salt: hydrochloride) [Example 21, 1-[8-(2-Chlorophenyl)-4-propyl-3,4-dihydro-2H-1,4-benzoxazin-2-yl]methanamine]
185 to 187 °C | NCC1CNc2cccc(-c3ccccc3C(F)(F)F)c2O1 (racemic) (as salt: hydrochloride) [Example 22, 1-{8-[2-(Trifluoromethyl)phenyl]-3,4-dihydro-2H-1,4-benzoxazin-2-yl}methanamine]
192 to 194 °C | NCC1CNc2cccc(-c3ccc(C(F)(F)F)cc3C(F)(F)F)c2O1 (racemic) (as salt: hydrochloride) [Example 23, 1-{8-[2,4-Bis(trifluoromethyl)phenyl]-3,4-dihydro-2H-1,4-benzoxazin-2-yl}methanamine]
230 to 232 °C | COc1ccc(-c2cccc3c2OC(CN)CN3)c(C)c1 (racemic) (as salt: hydrochloride) [Example 24, 1-[8-(4-Methoxy-2-methylphenyl)-3,4-dihydro-2H-1,4-benzoxazin-2-yl]methanamine]
